Data taken from PubChem BioAssay (NCI).
Values joined by “and” are separate entries in the source; they are usually repeats but may differ in a detail not shown here. Identical values can stand only once.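 Dose response: 5 concentrations. Exposure: 48 h. Format: 96-well plates. Endpoint: linear interpolation; highest concentration if not reached. GI50 is the concentration that inhibits growth by half. Definition used: TGI = concentration required for complete inhibition of growth.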 *1 amine or outer side, *2 acyl side, *3 side chain or, on linkers, in order; H or OH if unused. Where a SMILES comes first, the peptide text is derived from it. Bridges are numbered along the chain shown (N, C = ends). [ ]: non-standard residue; d: D form. The star is where a group is joined. X38 = CC[C@H](C)[C@@H](N[*:1])[C@@H](O)CC(=O)[*:2]; NMeY = CN[C@@H](Cc1ccc(O)cc1)C(=O)O; dNMeL = CN[C@H](CC(C)C)C(=O)O; Hiv = CC(C)[C@H](O)C(=O)O; Pyruvoyl = CC(=O)C(=O)*

Tests used:
Assay in all cases: NCI anticancer screen, dose series, 48 h
A498 renal = system: A498 renal
CAKI-1 renal = system: CAKI-1 renal
DU-145 prostate = system: DU-145 prostate
HCC-2998 colon = system: HCC-2998 colon
HT29 colon = system: HT29 colon
IGROV1 ovarian = system: IGROV1 ovarian
MDA-MB-435 = system: MDA-MB-435
NCI-H460 lung = system: NCI-H460 lung
NCI/ADR-RES ovarian = system: NCI/ADR-RES ovarian
SK-MEL-5 melanoma = system: SK-MEL-5 melanoma

SMILES	TGI (A498 renal) [µM]	TGI (CAKI-1 renal) [µM]	TGI (DU-145 prostate) [µM]	TGI (HCC-2998 colon) [µM]	TGI (HT29 colon)	TGI (IGROV1 ovarian) [µM]	TGI (MDA-MB-435) [µM]	TGI (NCI-H460 lung)	TGI (NCI/ADR-RES ovarian) [µM]	TGI (SK-MEL-5 melanoma)	GI50 (A498 renal) [µM]	GI50 (CAKI-1 renal) [µM]	GI50 (HT29 colon) [µM]	GI50 (IGROV1 ovarian) [µM]	GI50 (MDA-MB-435) [µM]	GI50 (NCI-H460 lung) [µM]	GI50 (NCI/ADR-RES ovarian) [µM]	GI50 (SK-MEL-5 melanoma) [µM]
COc1ccc(/C=C(\Cl)c2ccc(OC)c(OC)c2)cc1OC	> 100	> 100	> 100	> 100	> 100 µM	> 100	> 100	> 100 µM	> 100	> 100 µM	–	–	–	–	–	–	–	–
CCOC(=O)/C(O)=C(/C=N\C(=S)Nc1ccccc1Cl)C(=O)OCC	> 100	> 100	> 100	> 100	> 100 µM	> 100	> 100	> 100 µM	> 100	> 100 µM	–	–	–	–	–	–	–	–
COc1ccc(/C=C2/C(C)=NN(c3cccc(Cl)c3)/C2=N/c2nc3ccccc3s2)cc1	62.4	86.6	39.4	33.2	37.8 µM	46.7	> 100	43.2 µM	71.6	33.7 µM	–	–	–	–	–	–	–	–
Cc1occc1C(=S)Nc1ccc(Cl)c(C(=O)OCC(F)(F)F)c1	30.5	82.6	47.1	35.1	33.7 µM	39.7	37.4	48.1 µM	40.1	30.9 µM	–	–	–	–	–	–	–	–
O=C(O)C1CC2C3CCC2C1C3=O (stereo not drawn)	> 100	> 100	> 100	> 100	> 100 µM	> 100	> 100	> 100 µM	> 100	> 100 µM	–	–	–	–	–	–	–	–
CN(C)c1ccc(-c2c(C#N)c(N)[nH]c(=S)c2C#N)cc1	96.2	> 100	> 100	> 100	> 100 µM	> 100	> 100	> 100 µM	> 100	> 100 µM	–	–	–	–	–	–	–	–
COc1cc2cc(C(=O)N3CC(CCl)c4c3cc(NC(=O)C(C)(C)c3ccccc3[N+](=O)[O-])c3ccccc43)[nH]c2c(OC)c1OC (stereo not drawn)	–	–	28.2	33.2	50 µM and 203 µM	–	–	1.64 µM and 15.5 µM	–	7.81 µM and 35.1 µM	59.1	78.5	14.5	89.6	91.7	0.825	11.3	11.3
C/C(=N\N)C(CN(C)C)C(c1ccccc1)c1c(O)c2ccccc2oc1=O (stereo not drawn)	> 100	> 100	> 100	> 100	> 100 µM	> 100	> 100	> 100 µM	> 100	> 100 µM	–	–	–	–	–	–	–	–
N#CC1(C#N)C2CCCCC23OC(=N)C1(C#N)C(c1ccco1)O3 (stereo not drawn)	57.7	24.5	90	31	> 100 µM	40.3	52.8	> 100 µM	> 100	31.3 µM	–	–	–	–	–	–	–	–
CCOC(=O)C(c1c[nH]c2ccccc12)(c1c[nH]c2ccccc12)c1c[nH]c2ccccc12	> 100	> 100	> 100	45.3	> 100 µM	> 100	76.7	> 100 µM	> 100	> 100 µM	–	–	–	–	–	–	–	–
COc1ccc(Br)c2c1CC(C(=O)O)CC2 (stereo not drawn)	> 100	> 100	> 100	> 100	> 100 µM	> 100	> 100	> 100 µM	> 100	> 100 µM	–	–	–	–	–	–	–	–
CCOC(=O)CCC(NC(=O)Cc1ccc(Nc2nc3ccccc3nc2-c2ccccc2)cc1)C(=O)OCC (stereo not drawn)	> 100	> 100	> 100	> 100	> 100 µM	> 100	> 100	> 100 µM	> 100	> 100 µM	–	–	–	–	–	–	–	–
O=C1CSC2(CC(/C=C/c3ccccc3O)=NN2c2cccc(S(=O)(=O)O)c2)N1c1nc2ccccc2s1 (stereo not drawn)	> 100	> 100	97.5	52.6	> 100 µM	> 100	55.7	> 100 µM	> 100	> 100 µM	–	–	–	–	–	–	–	–
CCCCc1ccc(Nc2nc(Cl)c3c(ncn3COCCOC(C)=O)n2)cc1	38.8	60.1	30.5	34.3	34.9 µM	40.2	32.9	34.4 µM	41.2	36.2 µM	–	–	–	–	–	–	–	–
C[C@@]12C=CC3C/C(=N\C(N)=S)C=C(CCCC4OCCO4)[C@]3(CC1)C2 (stereo partly drawn)	33.1	69.9	78.6	34.2	25.4 µM	37.9	45.5	32 µM	54.3	24.8 µM	–	–	–	–	–	–	–	–
Clc1cccc(Cl)c1C=NC12CC3CC(CC(C3)C1)C2	> 10	> 10	> 10	> 10	> 10 µM	> 10	> 10	> 10 µM	> 10	> 10 µM	–	–	–	–	–	–	–	–
O=S1(=O)c2cnccc2NC(=NCc2cccc3ccccc23)N1c1ccccc1	> 100	> 100	> 100	> 100	> 100 µM	> 100	> 100	> 100 µM	> 100	> 100 µM	–	–	–	–	–	–	–	–
Fc1c(F)c(C(F)(F)F)c(F)c(F)c1N/N=C\c1c[nH]c2ccccc12	15	8.14	15.8	4.19	6.46 µM	10.4	3.14	3.93 µM	5.84	4.04 µM	–	–	–	–	–	–	–	–
O=C(O)C(=C\c1ccc2c(c1)OCO2)/C(=C/c1ccc2c(c1)OCO2)C(=O)O	> 100	> 100	> 100	> 100	> 100 µM	> 100	> 100	> 100 µM	> 100	> 100 µM	–	–	–	–	–	–	–	–
CC(C)=CCOc1cc(NC(=S)c2ccoc2C)ccc1Cl	> 100	> 100	> 100	> 100	> 100 µM	> 100	> 100	> 100 µM	> 100	> 100 µM	–	–	–	–	–	–	–	–
Cn1nc(Cc2ccc(Cl)cc2)n(N)c1=O	> 100	> 100	> 100	> 100	> 100 µM	> 100	> 100	> 100 µM	> 100	> 100 µM	–	–	–	–	–	–	–	–
COc1cc(S(=O)(=O)Nc2ccc(-c3csc(N4C(=O)CSC4c4cccs4)n3)cc2)ccc1Cl (stereo not drawn)	> 100	> 100	62	30.7	> 100 µM	> 100	> 100	91 µM	> 100	> 100 µM	–	–	–	–	–	–	–	–
c1csc(-c2cscc2-c2ccsc2)c1	> 100	> 100	> 100	> 89.6	> 100 µM	> 100	> 68	> 100 µM	> 100	> 100 µM	–	–	–	–	–	–	–	–
CSC1=N[C@H](c2ccccc2)CS1	> 100	> 100	> 100	> 100	> 100 µM	> 100	> 100	> 100 µM	> 100	> 100 µM	–	–	–	–	–	–	–	–
C=C1C(=O)C([Si](C)(C)C)=C2C=C(C)C3(CC3)C12C (stereo not drawn)	> 100	> 100	> 100	70.2	48.7 µM	> 100	64.3	> 100 µM	44.2	> 100 µM	–	–	–	–	–	–	–	–
CC(C)c1ccccc1SC1CC(=O)CC(Sc2ccccc2C(C)C)C12O[C@H](c1ccccc1)[C@@H](c1ccccc1)O2 (stereo partly drawn)	> 100	62.5	> 100	> 100	> 100 µM	> 100	55.2	> 100 µM	> 100	> 100 µM	–	–	–	–	–	–	–	–
CC[C@H](C)[C@H]1NC(=O)[C@@H](NC(=O)[C@@H](CC(C)C)N(C)C(=O)[C@@H]2CCCN2C(=O)C(C)=O)[C@@H](C)OC(=O)[C@H](Cc2ccc(OC)cc2)N(C)C(=O)[C@@H]2CCCN2C(=O)[C@H](CC(C)C)NC(=O)[C@H](C(C)C)OC(=O)C[C@@H]1O (Pyruvoyl-P[dNMeL]T[X38][Hiv]LP[NMeY](Me); ester 3-C)	0.0904	1.22	0.00299	0.00658	0.0795 µM	1.19	0.158	0.0321 µM	4.77	0.0102 µM	–	–	–	–	–	–	–	–
NC(=O)C(Nc1c(Cl)cccc1Cl)c1cc2cc(Br)ccc2nc1Cl (stereo not drawn)	> 100	> 100	> 100	> 100	> 100 µM	> 100	49.9	> 100 µM	> 100	> 100 µM	–	–	–	–	–	–	–	–
O=C(c1ccc(Cl)cc1Cl)N(C(=O)N1CCC(c2ccccc2)CC1)c1ccccc1	> 100	> 100	> 100	> 100	> 100 µM	> 100	> 100	> 100 µM	> 100	> 100 µM	–	–	–	–	–	–	–	–
Fc1cc(C2=C[C@H](c3ccc(Cl)cc3)NC(=S)N2)c(Cl)cc1Cl	89.6	> 100	> 100	79.8	> 100 µM	> 100	> 100	> 100 µM	> 100	36.1 µM	–	–	–	–	–	–	–	–
